# Experiments:
# [1] = system: cellules LS-174 T; conditions: LS-174 T cells 7.10^6/ml, 4 °C, 2 h; nanomolar concentrations of bispecific antibody (anti-CEA/anti-histamine-succinyl-glycine); maximum binding
# Procedure: Des cellules LS-174 T (7.10^6 cellules/ml), cellules d'origine humaine connues pour exprimer à leur surface l'antigène carcino-embryonnaire, sont incubées à 4° C pendant 2 heures dans des tubes contenant un tampon phosphate isotonique à pH 7,3. Dans ces tubes, ont été ajoutés à des concentrations variables le conjugué bispécifique approprié (anti-antigène carcino-embryonnaire/anti-histamine-succinyl-glycine), marqué à l'iode-125 suivant une des techniques bien connues et la sonde, marquée au ^99mTc comme décrit ci-dessus. Ces concentrations sont calculées pour couvrir un domaine s'étendant de concentrations très inférieures à très supérieures à la concentration de l'antigène cible dans le mélange. A la fin de cette incubation, 100 µl de mélange sont transférés en triplicates dans des tubes contenant un mélange de phthalates. Les tubes sont centrifugés 30 secondes à environ 5000 g. Les cellules, plus denses que les phthalates, forment un culot alors que le surnageant reste à la surface. On peut alors compter séparément les activités (^125I et ^99mTc) liées aux cellules et les activités non liées et en calculer les rapports.
# [2] = system: lymphocytes de souris BALB/c qui expriment l'antigène Lyb 8.2; conditions: 1 µg conjugate CY34-679.1MC7 a few minutes earlier; 100 µCi; 4 h after injection
# Procedure: (§1) La liaison du dérivé de l'exemple 3 aux cellules hépatiques s'effectue par l'intermédiaire de sa liaison au site Ac de l'anticorps 679.1MC7, lui même lié par son fragment F(c) à ces cellules. Des souris ayant reçu 2µg d'anticorps 679.1MC7 24 heures plus tôt sont injectées par voie intraveineuse avec 100 µCi (15 pmol) de dérivé de l'exemple 3. Les images sont réalisées avec une caméra Sopha Medical Gammatome 2 équipée avec un collimateur haute résolution de moyenne énergie, puis les animaux sont sacrifiés et la radioactivité présente dans le foie est déterminée à l'aide d'un compteur gamma. […] 100 µCi de dérivé de l'exemple 3 sont injectés à une souris ayant reçu quelques minutes plus tôt 1µg de conjugué anticorps CY34-679.1MC7 (anti-lyb8.2-anti-Histamine-Succinyl-Glycine). Les images sont enregistrées comme indiqué dans l'exemple précédent. […] Des cellules de tumeurs colorectales humaines (cellules LS 174, 3.10^6) sont injectées par voie sous cutanée à des souris nudes. […] Les souris reçoivent alors 2µg de conjugué anticorps F6-679.1MC7 (antiCEA-anti-Histamine-Succinyl-Glycine). Vingt quatre heures plus tard les souris reçoivent 6,7µCi (1pmol) de dérivé de l'exemple 3. Six heures plus tard les images sont enregistrées comme indiqué dans l'exemple précédent puis les animaux sacrifiés.
# [3] = system: cellules hépatiques; conditions: 2 µg antibody 679.1MC7 24 h earlier; 100 µCi (15 pmol) i.v.; 4 h after injection
# Procedure: as §1
# [4] = system: tumeurs colorectales humaines (LS174); conditions: 2 µg conjugate F6-679.1MC7 24 h earlier, 6,7 µCi (1 pmol)
# Procedure: as §1
substance,measurement,setting,value
^99mTc mercaptoacétyl-Glycyl-Glycyl-Glycyl-N-ε-(Histamine-Succinyl-Glycine)-Lysyl-D-Tyrosyl-N-ε-(Histamine-Succinyl-Glycine)-Lysinamide [Exemple 3],pourcentage de sonde lié par rapport à sa quantité totale,[1],~70%
same,% de la dose injectée localisée dans la rate,[2],43 ± 3 % de la dose injectée
same,scintigraphie de la rate,[2],apparente en scintigraphie
same,% de la dose injectée localisée dans le foie,[3],54 ± 6 % de la dose injectée
same,scintigraphie du foie,[3],apparent en scintigraphie
same,visibilité des tumeurs,[4],visibles dès trois heures après l'injection
same,localisation de la radioactivité,[4]; 6 h after injection,"9,8 ± 3,7 % / g de tumeur"
same,rapport de marquage tumeur/plasma,[4]; 6 h after injection,2.0 + 0.5
